# Results published in paper PMC6709534 (Journal of the American Chemical Society, 2015).
# Assays:
# [1] = test system: H. pylori; conditions: antibiotics used in multidrug therapy and moenomycin A; cited from earlier work
# [2] = test system: H. pylori; experiment: H. pylori growth on 5% horse blood agar; assay type: cell-based, Helicobacter pylori; conditions: versus ∼8 ng/mL of the 10 best MTAN inhibitors
SMILES,IC90 of current antibiotics against H. pylori [1],fold weaker than the 10 best MTAN inhibitors (IC90 ratio) [2]
Cc1ncc([N+](=O)[O-])n1CCO [Metronidazole],16 000 ng/mL,2000 fold
CC[C@H]1OC(=O)[C@H](C)[C@@H](O[C@H]2C[C@@](C)(OC)[C@@H](O)[C@H](C)O2)[C@H](C)[C@@H](O[C@@H]2O[C@H](C)C[C@H](N(C)C)[C@H]2O)[C@](C)(OC)C[C@@H](C)C(=O)[C@H](C)[C@@H](O)[C@]1(C)O [clarithromycin],8000 ng/mL,–
C[C@H]1COc2c(N3CCN(C)CC3)c(F)cc3c(=O)c(C(=O)O)cn1c23 [levofloxacin],1000 ng/mL,–
C=C(C/C=C(\C)CCC=C(C)C)CCC(C)(C)/C=C/CC/C(C)=C\CO[C@H](COP(=O)(O)O[C@H]1O[C@H](C(N)=O)[C@@](C)(O)[C@H](OC(N)=O)[C@H]1O[C@@H]1O[C@H](CO[C@@H]2O[C@H](CO)[C@@H](O)[C@H](O)[C@H]2O)[C@@H](O[C@@H]2O[C@H](C)[C@@H](O[C@@H]3O[C@H](C(=O)NC4=C(O)CCC4=O)[C@H](O)[C@H](O)[C@H]3O)[C@H](O)[C@H]2NC(C)=O)[C@H](O)[C@H]1NC(C)=O)C(=O)O [moenomycin A],2000 ng/mL,–
CN(C)[C@@H]1C(O)=C(C(N)=O)C(=O)[C@@]2(O)C(O)=C3C(=O)c4c(O)cccc4[C@@](C)(O)[C@H]3C[C@@H]12 [tetracycline],500 ng/mL,–
